Each structure is given as a SMILES string. pKd: −log10 of the molar value.

Experimental findings from patent US20100222396A1 (Novartis AG, priority 2009, published 2010) are described below.

The target in assay [1] is T1, human orexin 1 receptor (hOx1R) (Homo sapiens, UniProt O43613).
T1 construct: expressed in transfected cells
T1 sequence (O43613 1-425): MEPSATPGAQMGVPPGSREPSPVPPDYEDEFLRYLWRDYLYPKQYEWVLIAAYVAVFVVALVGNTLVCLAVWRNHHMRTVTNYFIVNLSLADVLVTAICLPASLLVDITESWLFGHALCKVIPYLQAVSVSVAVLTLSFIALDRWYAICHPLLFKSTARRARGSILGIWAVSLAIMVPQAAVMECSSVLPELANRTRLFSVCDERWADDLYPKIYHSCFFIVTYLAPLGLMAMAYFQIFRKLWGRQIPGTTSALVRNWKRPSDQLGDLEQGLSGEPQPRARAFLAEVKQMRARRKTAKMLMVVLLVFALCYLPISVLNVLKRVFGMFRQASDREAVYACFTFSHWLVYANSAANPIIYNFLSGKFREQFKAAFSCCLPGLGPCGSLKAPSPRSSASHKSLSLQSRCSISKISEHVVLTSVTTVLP
The experiment in a line: Radioligand binding assay ([125I]orexin A competition), hOx1R. The settings on record: CHO or HEK cell membranes, 1 h room temperature. The gist of the method: (§1)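 Membranes from CHO or HEK cells expressing the human receptor, incubated 1 h at room temperature with […] [125I]orexin A and compound in HEPES pH 7.5 buffer with BSA, MgCl2, CaCl2 and tween.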

Assay [2] addresses T2, human orexin 2 receptor (hOx2R) (Homo sapiens, UniProt O43614).
T2 construct: expressed in transfected cells
T2 sequence (O43614 1-444): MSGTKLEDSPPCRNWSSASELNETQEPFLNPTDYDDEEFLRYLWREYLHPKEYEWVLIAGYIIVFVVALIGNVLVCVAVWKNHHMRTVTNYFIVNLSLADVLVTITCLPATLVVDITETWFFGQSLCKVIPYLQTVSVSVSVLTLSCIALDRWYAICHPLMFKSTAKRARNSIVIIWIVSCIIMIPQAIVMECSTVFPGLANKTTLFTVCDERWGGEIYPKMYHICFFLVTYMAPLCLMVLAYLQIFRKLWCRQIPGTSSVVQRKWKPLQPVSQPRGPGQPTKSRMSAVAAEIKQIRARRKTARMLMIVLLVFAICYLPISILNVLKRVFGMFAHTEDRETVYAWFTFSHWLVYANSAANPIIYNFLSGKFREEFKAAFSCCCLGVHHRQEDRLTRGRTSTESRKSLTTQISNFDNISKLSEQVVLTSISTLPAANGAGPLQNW
In words: Radioligand binding assay ([125I]orexin A competition), hOx2R. Conditions: CHO or HEK cell membranes, 1 h room temperature. The gist of the method: as §1

Assay [3] has as its target T2, human orexin 2 receptor (hOx2R). In words: Calcium accumulation in cells (FLIPR), antagonism of orexin A, hOx2R. The format is cell-based. Conditions: for pKd: cells expressing human orexin 2 receptor, IC50 vs orexin A converted by Cheng and Prusoff correction. The gist of the method: (§2)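 Serum-starved receptor-expressing cells were loaded with Fluo-4-AM (2 μM) plus probenecid (0.1 mM) in HEPES buffer, pH 7.4, with 1% BSA, and Ca2+ fluorescence was read on FLIPR. Compounds (10^−9–10^−5 M) were added first, and orexin A was added one hour later to measure antagonism.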

Assay [4] addresses T1, human orexin 1 receptor (hOx1R). In words: Calcium accumulation in cells (FLIPR), antagonism of orexin A, hOx1R. The format is cell-based. Conditions: for pKd: cells expressing human orexin 1 receptor, IC50 vs orexin A converted by Cheng and Prusoff correction; for inhibition at 10 µM: measured at a concentration of 10 μM of compound (cells marked ^a). The gist of the method:
as §2

Usually pKd stands for the Kd on a negative log10 scale, so that one unit is a factor of ten. For `CN(C(=O)c1ccc2ccccc2c1)[C@@H](CCNC(=O)c1ccccn1)Cc1ccccc1` [Example 43, Pyridine-2-carboxylic acid {(R)-3-[methyl-(naphthalene-2-carbonyl)-amino]-4-phenyl-butyl}-amide], the pKd in assay [1] was 5.65; in assay [2], 6.22; in assay [3] it was 6.69; in assay [4], 6.03.
As to `Cc1cccc(C(=O)N(C)[C@H](CCNC(=O)c2cccn2C)Cc2ccccc2)c1` [Example 119, 1-Methyl-1H-pyrrole-2-carboxylic acid {(8)-3-[methyl-(3-methyl-benzoyl)-amino]-4-phenyl-butyl}-amide], the pKd is 6.60 in assay [1], 7.85 in assay [2], 8.40 in assay [3] and 6.27 in assay [4].
For `Cc1nc(C(=O)NCC[C@H](Cc2ccccc2)N(C)C(=O)c2ccccc2)c(-c2ccccc2F)s1` [Example 27, 5-(2-Fluoro-phenyl)-2-methyl-thiazole-4-carboxylic acid [(S)-3-(benzoyl-methyl-amino)-4-phenyl-butyl]-amide], the pKd was 6.11 in assay [1], 6.47 in assay [2], 7.96 in assay [3] and 7.12 in assay [4].
On the same counts, the results for `CN(C(=O)c1cccc2c1OCC2)[C@H](CCNC(=O)c1ccccn1)Cc1ccccc1` [Example 46, Pyridine-2-carboxylic acid {(8)-3-[(2,3-dihydro-benzofuran-7-carbonyl)-methyl-amino]-4-phenyl-butyl}-amide] are 6.40, 6.06, 6.00 and 5.74.
On the same counts, the results for `CN(C(=O)c1cc(C(F)(F)F)cc(C(F)(F)F)c1)[C@@H](CCNC(=O)c1ccccn1)Cc1ccccc1` [Example 74, Pyridine-2-carboxylic acid {(R)-3-[(3,5-bis-trifluoromethyl-benzoyl)-methyl-amino]-4-phenyl-butyl}-amide] are < 5.00, < 5.00, 5.79 and 5.49.
In the same order, the values of `CN(C(=O)c1ccc2c(c1)OCO2)[C@H](CCNC(=O)c1nccn1C)Cc1ccccc1` [Example 78, 1-Methyl-1H-imidazole-2-carboxylic acid {(S)-3-[(benzo[1,3]dioxole-5-carbonyl)-methyl-amino]-4-phenyl-butyl}-amide] are 6.18, 7.62, 7.55 and 5.83.
Consider `CN(C(=O)c1cccc2c1ccn2C)[C@H](CCNC(=O)c1ccccn1)Cc1ccccc1` [Example 40, 1-Methyl-1H-indole-4-carboxylic acid {(S)-1-benzyl-3-[(pyridine-2-carbonyl)-amino]-propyl}-methyl-amide], for which the pKd in assay [1] is 6.90; in assay [2], 6.21; in assay [3], 6.66; in assay [4], 6.71.
Consider `CN(C(=O)c1cc(C(F)(F)F)cc(C(F)(F)F)c1)[C@H](CCNC(=O)c1ccccn1)Cc1ccccc1` [Example 5, Pyridine-2-carboxylic acid {(S)-3-[(3,5-bis-trifluoromethyl-benzoyl)-methyl-amino]-4-phenyl-butyl}-amide], for which the pKd in assay [1] is 6.00; in assay [2], 7.74; in assay [3] it was 8.10; in assay [4] it was 6.29.
On the same counts, the results for `CCN(C(=O)c1cc(C(F)(F)F)cc(C(F)(F)F)c1)[C@H](CCNC(=O)c1ccccn1)Cc1ccccc1` [Example 10, Pyridine-2-carboxylic acid {(S)-3-[(3,5-bis-trifluoromethyl-benzoyl)-ethyl-amino]-4-phenyl-butyl}-amide] are 5.49, 7.23, 7.57 and 5.87.
On to `CCN(C(=O)c1cccc2c1OCO2)[C@H](CCNC(=O)c1ccccn1)Cc1ccccc1` [Example 45, Pyridine-2-carboxylic acid {(S)-3-[(benzo[1,3]dioxole-4-carbonyl)-ethyl-amino]-4-phenyl-butyl}-amide], for which the pKd in assay [1] is 5.27; in assay [2], 6.13; in assay [3] it was 6.37; in assay [4], 5.57.
A word on the inhibition: it is the drop in the measured response relative to a control, in per cent. `CN(C(=O)c1ccccc1)[C@H](CCNC(=O)c1ccccn1)Cc1ccc(Cl)cc1` [Example 70, Pyridine-2-carboxylic acid [(S)-3-(benzoyl-methyl-amino)-4-(4-chloro-phenyl)-butyl]-amide]: the pKd in assay [1] is < 5.00; in assay [2], 5.08. Moreover, the inhibition at 10 µM in assay [3] (measured at a concentration of 10 μM of compound (cells marked ^a)) was 29%; in assay [4], 0%.
`CN(C(=O)c1cccc2ccn(C)c12)[C@H](CCNC(=O)c1ccccn1)Cc1ccccc1` [Example 36, 1-Methyl-1H-indole-7-carboxylic acid {(S)-1-benzyl-3-[(pyridine-2-carbonyl)-amino]-propyl}-methyl-amide]: the pKd is 6.07 in assay [1], 6.33 in assay [2] and 6.25 in assay [3]. Further, in assay [4], the inhibition at 10 µM was 37%.
Turning to `CN(C(=O)c1ccccc1)[C@H](CCNC(=O)c1ccccn1)Cc1ccccc1` [Example 37, Pyridine-2-carboxylic acid [(S)-3-(benzoyl-methyl-amino)-4-phenyl-butyl]-amide], the pKd in assay [1] is 6.45; in assay [2], 6.32; in assay [3] it was 6.36; in assay [4], 6.08.
Turning to `CCN(C(=O)c1ccc2c(c1)OCO2)[C@H](CCNC(=O)c1ccccn1)Cc1ccccc1` [Example 8, Pyridine-2-carboxylic acid {(S)-3-[(benzo[1,3]dioxole-5-carbonyl)-ethyl-amino]-4-phenyl-butyl}-amide], the pKd in assay [1] was 6.57; in assay [2] it was 7.34; in assay [3] it was 7.49; in assay [4], 6.68.
For the molecule `CN(C(=O)c1cccc2ccccc12)[C@H](CCNC(=O)c1nc2ccccc2n1C)Cc1ccccc1` [Example 18, 1-Methyl-1H-benzoimidazole-2-carboxylic acid {(S)-3-[methyl-(naphthalene-1-carbonyl)-amino]-4-phenyl-butyl}-amide], the pKd in assay [1] was 6.48; in assay [2], 6.89; in assay [3] it was 7.85; in assay [4], 7.00.
As for `CCCN(C(=O)c1cc(C(F)(F)F)cc(C(F)(F)F)c1)[C@H](CCNC(=O)c1ccccn1)Cc1ccccc1` [Example 22, Pyridine-2-carboxylic acid {(S)-3-[(3,5-bis-trifluoromethyl-benzoyl)-propyl-amino]-4-phenyl-butyl}-amide], the pKd in assay [1] is < 5.00; in assay [2] it was 6.67; in assay [3], 6.98; in assay [4], 5.80.
For `CN(C(=O)c1ccc2c(c1)OCO2)[C@H](CCNC(=O)c1cccn1C)Cc1ccccc1` [Example 76], the pKd in assay [1] is 7.03; in assay [2], 8.40; in assay [3], 9.00; in assay [4], 6.42.
Take `CN(C(=O)c1ccc(Br)cc1)[C@H](CCNC(=O)c1ccccn1)Cc1ccccc1` [Example 99, Pyridine-2-carboxylic acid {(S)-3-[(4-bromo-benzoyl)-methyl-amino]-4-phenyl-butyl}-amide]: the pKd in assay [1] was 5.71; in assay [2], 6.09; in assay [3], 6.94; in assay [4], 5.95.
`Cc1cccc(C(=O)N(C)[C@H](CCNC(=O)c2ccccn2)Cc2ccccc2)c1` [Example 96, Pyridine-2-carboxylic acid {(S)-3-[methyl-(3-methyl-benzoyl)-amino]-4-phenyl-butyl}-amide]: the pKd was 6.61 in assay [1], 6.88 in assay [2], 7.13 in assay [3] and 6.32 in assay [4].
In the same order, the values of `CN(C(=O)c1ccc2ccccc2c1)[C@H](CCNC(=O)c1ccccn1)Cc1ccccc1` [Example 21, Pyridine-2-carboxylic acid {(S)-3-[methyl-(naphthalene-2-carbonyl)-amino]-4-phenyl-butyl}-amide] are 7.21, 6.69, 6.76 and 7.15.
